From patent US12649750B2, “Macrocyclic compounds, compositions, and methods of using thereof” (Sionna Therapeutics Inc., priority 2022, dated 2026)

These molecules were tested against T1, NBD1 (Homo sapiens, UniProt P13569) (assay: Aggregation analysis using differential static light scattering (DSLS), thermal stability of NBD1 (ΔTagg)). Conditions: ΔTagg versus DMSO control, NBD1 0.2 mg/ml.
T1 construct: Purified recombinant NBD1 was produced using previously described methods; made in house
Format: binding
Method: Example 386. Aggregation Analysis Using Differential Static Light Scattering (DSLS)
Purified recombinant NBD1 was produced using previously described methods (A. Schmidt, J. L. Mendoza, P. J. Thomas (2011) Biochemical and Biophysical Approaches to Probe CFTR Structure (365-376) M. D. Amaral, K. Kunzelmann (eds.), Cystic Fibrosis, Methods in Molecular Biology 741, Springer Science+Business Media). The effect of test compounds on thermal stability of NBD1 was evaluated by differential static light scattering (DSLS) using the Harbinger Stargazer-384 instrument (Epiphyte Three, Toronto, Canada). Test compounds were dissolved and diluted to desired concentrations in 100% DMSO. The compounds or DMSO controls (100 nL) were stamped into wells of a […] low volume optical plate (Corning Inc., Corning, NY) using the Echo 555 acoustic liquid handler (Labcyte Inc., San Jose, CA).
NBD1 protein was diluted to 0.2 mg/ml in S200 buffer (50 mM Tris-HCl, 150 mM NaCl, 5 mM MgCl2, 2 mM ATP, 2 mM DTT, pH7.6) containing 1% glycerol. 10 uL of protein solution was aliquoted into the 384-well plate harboring the test compounds and 10 uL mineral oil was overlaid onto the protein solution, using the epMotion robotic liquid handler (Eppendorf North America, Hauppauge, NY). After placing into the Stargazer instrument, the plate was heated at 1° C. per minute to 70° C. Images were captured from 25° C. to 70° C. every 0.5° C. At the end of the experiment run, instrument software integrated image files and analyzed data automatically. A […] regression curve was generated for each well, representing the increase in light scattering over time. A temperature of aggregation (Tagg) was calculated based on the inflection point of the curve. To better compare data across experiments the average Tagg for DMSO control wells was calculated and subtracted from values for wells containing compounds to obtain a “ΔTagg” value. These ΔTagg values reflect stabilizing efficacy of the compounds. As set forth in Table 2 below, an ΔTagg value less than or equal to 5° C. is marked “A”; a value above 5° C. and less than or equal to 10° C. is marked “B”; a value greater than 10° C. and less than or equal to 25° C. is marked “C”.

T1 sequence (P13569 423-646 limits assumed): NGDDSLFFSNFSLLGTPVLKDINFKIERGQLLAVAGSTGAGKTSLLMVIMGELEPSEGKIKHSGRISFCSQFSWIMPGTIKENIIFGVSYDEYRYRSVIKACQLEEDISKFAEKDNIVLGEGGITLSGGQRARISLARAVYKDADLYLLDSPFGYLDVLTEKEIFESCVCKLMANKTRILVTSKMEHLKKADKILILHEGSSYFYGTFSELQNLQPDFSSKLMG

| SMILES | DSLS 3D (100 μM ΔT) |
| --- | --- |
| C[C@@H](Cc1cccc(C2(C)CCCC(C)(C)CS(=O)(=O)CCc3c(c(F)cc4[nH]ccc34)[S+]([O-])c3ccnc(c3)-c3nc2nn3C)n1)C(=O)O (single isomer, unassigned) [Compound 315B] | A (an ΔTagg value less than or equal to 5 °C is marked “A”) |
| C[C@@H](Cc1cccc(C2(C)CCCC(C)(C)CS(=O)(=O)CCc3c(c(F)cc4[nH]ccc34)[S+]([O-])c3ccnc(c3)-c3nc2nn3C)n1)C(=O)O (single isomer, unassigned) [Compound 315C] | A (an ΔTagg value less than or equal to 5 °C is marked “A”) |
| C[C@@H](Cc1cccc(C2(C)CCCC(C)(C)CS(=O)(=O)CCc3c(c(F)cc4[nH]ccc34)[S+]([O-])c3ccnc(c3)-c3nc2nn3C)n1)C(=O)O (single isomer, unassigned) [Compound 315D] | B (a value above 5 °C and less than or equal to 10 °C is marked “B”) |
| CC1c2ccnc(c2)-c2nc(nn2C)[C@@](C)(c2cccc(C[C@H](C)C(=O)O)c2)CCCC(C)(C)CS(=O)(=O)CCc2c1c(F)c(F)c1[nH]ccc21 (single isomer, unassigned) [Compound 316A] | B (a value above 5 °C and less than or equal to 10 °C is marked “B”) |
| CC1c2ccnc(c2)-c2nc(nn2C)[C@@](C)(c2cccc(C[C@H](C)C(=O)O)c2)CCCC(C)(C)CS(=O)(=O)CCc2c1c(F)c(F)c1[nH]ccc21 (single isomer, unassigned) [Compound 316B] | A (an ΔTagg value less than or equal to 5 °C is marked “A”) |
| CC1c2ccnc(c2)-c2nc(nn2C)[C@@](C)(c2cccc(C[C@@H](C)C(=O)O)c2)CCCC(C)(C)CS(=O)(=O)CCc2c1c(F)c(F)c1[nH]ccc21 (single isomer, unassigned) [Compound 317A] | B (a value above 5 °C and less than or equal to 10 °C is marked “B”) |
| CC1c2ccnc(c2)-c2nc(nn2C)[C@@](C)(c2cccc(C[C@@H](C)C(=O)O)c2)CCCC(C)(C)CS(=O)(=O)CCc2c1c(F)c(F)c1[nH]ccc21 (single isomer, unassigned) [Compound 317B] | A (an ΔTagg value less than or equal to 5 °C is marked “A”) |
| CC1c2ccnc(c2)-c2nc(nn2C)[C@@](C)(c2cccc(CC(C)(C)C(=O)O)c2)CCCC(C)(C)CS(=O)(=O)CCc2c1c(F)c(F)c1[nH]ccc21 (single isomer, unassigned) [Compound 318A] | A (an ΔTagg value less than or equal to 5 °C is marked “A”) |
| CC1c2ccnc(c2)-c2nc(nn2C)[C@@](C)(c2cccc(CC(C)(C)C(=O)O)c2)CCCC(C)(C)CS(=O)(=O)CCc2c1c(F)c(F)c1[nH]ccc21 (single isomer, unassigned) [Compound 318B] | A (an ΔTagg value less than or equal to 5 °C is marked “A”) |
| C[C@H](Cc1cccc([C@@]2(C)CCCC(C)(C)CS(=O)(=O)CCc3c(c(F)c(F)c4[nH]ccc34)[S+]([O-])c3ccc(F)c(c3)-c3nc2nn3C)c1)C(=O)O (single isomer, unassigned) [Compound 319] | B (a value above 5 °C and less than or equal to 10 °C is marked “B”) |
| Cn1nc2nc1-c1cc(ccc1F)[S+]([O-])c1c(F)c(F)c3[nH]cc(CC(=O)O)c3c1CCS(=O)(=O)CC(C)(C)CCC[C@]2(C)c1ccccc1 (single isomer, unassigned) [Compound 326] | A (an ΔTagg value less than or equal to 5 °C is marked “A”) |
| C[C@@H](Cc1cccc([C@@]2(C)CCCC(C)(C)CS(=O)(=O)CCc3c(c(F)cc4[nH]ccc34)[S+]([O-])c3cccc(c3)-c3coc2n3)c1)C(=O)O (single isomer, unassigned) [Compound 330] | A (an ΔTagg value less than or equal to 5 °C is marked “A”) |
| Cn1nc2nc1-c1cc(ccn1)[S+]([O-])c1c(F)cc3[nH]ccc3c1CCS(=O)(=O)CC(C)(C)CCC[C@]2(C)c1cccc(C[C@H](O)CO)c1 (single isomer, unassigned) [Compound 334] | B (a value above 5 °C and less than or equal to 10 °C is marked “B”) |
| Cn1nc2nc1-c1cc(ccn1)[S+]([O-])c1c(F)cc3[nH]ccc3c1CCS(=O)(=O)CC(C)(C)CCC[C@]2(C)c1cccc(C[C@@H](O)CO)c1 (single isomer, unassigned) [Compound 337] | A (an ΔTagg value less than or equal to 5 °C is marked “A”) |
| Cn1nc2nc1-c1cc(ccn1)[S+]([O-])c1c(F)c(F)c3[nH]ccc3c1CCS(=O)(=O)CC(C)(C)CCC[C@]2(C)c1cccc(C[C@H](O)CO)c1 (single isomer, unassigned) [Compound 341] | B (a value above 5 °C and less than or equal to 10 °C is marked “B”) |
| CNC(=O)[C@H](C)Cc1cccc([C@@]2(C)CCCC(C)(C)CS(=O)(=O)CC(NC)c3c(c(F)c(F)c4[nH]ccc34)Oc3ccc(F)c(c3)-c3nc2nn3C)c1 (single isomer, unassigned) [Compound 360B] | B (a value above 5 °C and less than or equal to 10 °C is marked “B”) |
| CNC(=O)[C@H](C)Cc1cccc([C@@]2(C)CCCC(C)(C)CS(=O)(=O)CC(NC)c3c(c(F)c(F)c4[nH]ccc34)Oc3ccc(F)c(c3)-c3nc2nn3C)c1 (single isomer, unassigned) [Compound 360C] | A (an ΔTagg value less than or equal to 5 °C is marked “A”) |
| Cn1nc2nc1-c1cc(ccn1)[S+]([O-])c1c(F)cc3[nH]cc(CC(=O)O)c3c1CCS(=O)(=O)CC(C)(C)CCC[C@]2(C)c1ccccc1 (single isomer, unassigned) [Compound 365] | A (an ΔTagg value less than or equal to 5 °C is marked “A”) |
| C[C@H](Cc1cccc([C@@]2(C)CCCC(C)(C)CS(=O)(=O)CC(N(C)C)c3c(c(F)c(F)c4[nH]ccc34)Oc3ccc(F)c(c3)-c3nc2nn3C)c1)C(=O)N(C)C (single isomer, unassigned) [Compound 367A] | A (an ΔTagg value less than or equal to 5 °C is marked “A”) |
| C[C@H](Cc1cccc([C@@]2(C)CCCC(C)(C)CS(=O)(=O)CC(N(C)C)c3c(c(F)c(F)c4[nH]ccc34)Oc3ccc(F)c(c3)-c3nc2nn3C)c1)C(=O)N(C)C (single isomer, unassigned) [Compound 367B] | A (an ΔTagg value less than or equal to 5 °C is marked “A”) |
| CNC(=O)[C@@H](C)Cc1cccc([C@@]2(C)CCCC(C)(C)CS(=O)(=O)CC(NC)c3c(c(F)cc4[nH]ccc34)Sc3ccc(F)c(c3)-c3nc2nn3C)c1 (single isomer, unassigned) [Compound 368A] | B (a value above 5 °C and less than or equal to 10 °C is marked “B”) |
| CNC(=O)[C@@H](C)Cc1cccc([C@@]2(C)CCCC(C)(C)CS(=O)(=O)CC(NC)c3c(c(F)cc4[nH]ccc34)Sc3ccc(F)c(c3)-c3nc2nn3C)c1 (single isomer, unassigned) [Compound 368B] | A (an ΔTagg value less than or equal to 5 °C is marked “A”) |
| CC(=O)NC1CS(=O)(=O)CC(C)(C)CCC[C@](C)(c2cccc(C[C@@H](C)C(=O)O)c2)c2nc(n(C)n2)-c2cc(ccc2F)Oc2c(F)c(F)c3[nH]ccc3c21 (single isomer, unassigned) [Compound 369A] | C (a value greater than 10 °C and less than or equal to 25 °C is marked “C”) |
| CC(=O)NC1CS(=O)(=O)CC(C)(C)CCC[C@](C)(c2cccc(C[C@@H](C)C(=O)O)c2)c2nc(n(C)n2)-c2cc(ccc2F)Oc2c(F)c(F)c3[nH]ccc3c21 (single isomer, unassigned) [Compound 369B] | B (a value above 5 °C and less than or equal to 10 °C is marked “B”) |
| C[C@@H](Cc1cccc([C@@]2(C)CCCC(C)(C)CS(=O)(=O)CC(N)c3c(c(F)cc4[nH]ccc34)Sc3ccc(F)c(c3)-c3nc2nn3C)c1)C(N)=O (single isomer, unassigned) [Compound 370A] | B (a value above 5 °C and less than or equal to 10 °C is marked “B”) |
| C[C@@H](Cc1cccc([C@@]2(C)CCCC(C)(C)CS(=O)(=O)CC(N)c3c(c(F)cc4[nH]ccc34)Sc3ccc(F)c(c3)-c3nc2nn3C)c1)C(N)=O (single isomer, unassigned) [Compound 370B] | A (an ΔTagg value less than or equal to 5 °C is marked “A”) |
| COCC(Cc1cccc([C@@]2(C)CCCC(C)(C)CS(=O)(=O)CCc3c(c(F)c(F)c4[nH]ccc34)[S+]([O-])c3ccc(F)c(c3)-c3nc2nn3C)c1)C(=O)O (single isomer, unassigned) [Compound 371] | B (a value above 5 °C and less than or equal to 10 °C is marked “B”) |
